Experimental data published in the supplement of paper PMC11208160.

Assay: recombinant UMI read abundance after kanamycin selection (control-corrected) (log10(CPM+1)); higher = more efficient recombination; extreme values may be limits of the assay; sequences stand for … in AGTGCAGAGAAAATCGGCCAGTTTTCTCTGCCTGCAGTCCGCATGCCGTGGGACCCCTTGGGTTCTAACCTGTTGCCTAGATTTATGCAGCGGACTGCCTTTCTCCCAAAGTGATAAACCGG…AGGTTGGTTTCACT; site = the 11-nt donor
How it was run: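 Sequencing read counts were converted to CPM, averaged over two replicates and scaled by control-derived factors. Results are given as log10(CPM+1). The reads covered the donor–target junction of recombinant UMIs from a pooled Escherichia coli screen of donor and donor-binding-loop pairs for the IS621 bridge recombinase.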
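Also: IS621 bridge recombinase in Escherichia coli cells against a fixed T5 target plasmid.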

Compared with “CCCATCTCATGGACCGGTTTTCCCGGTAATCCGTATTTGTC (site CCCATCTCTGA)”, “CCCATCTCATGGACCGGTTTTCCCGGTAATCCGTATTTGTC (site CCCATGTCTGA)” is lower in “recombinant UMI read abundance (log10)” value: 1.35 for the first, 0 for the second.

“CCCATCTCATGGACCGGTTTTCCCGGTAATCCGTATTTGTC (site CCCATTTCTGA)” and “CCCCAAGCATGGACCGGTTTTCCCGGTAATCCGTATTTGGC (site CCCCAAGCTGC)” are the same in “recombinant UMI read abundance (log10)” value: 0 for the first, 0 for the second.

“CCCCACACATGGACCGGTTTTCCCGGTAATCCGTATTTGCA (site CCCCACACTTA)” and “CCCCACACATGGACCGGTTTTCCCGGTAATCCGTATTTGCA (site CCCCACACTTC)” are within 0.2 log units of each other in “recombinant UMI read abundance (log10)” value: 0.0196 for the first, 0.0185 for the second.

First: CCCCACACATGGACCGGTTTTCCCGGTAATCCGTATTTGCA (site CCCCACACTTG)
Second: CCCCACACATGGACCGGTTTTCCCGGTAATCCGTATTTGCA (site CCCCACACTTT)
The “recombinant UMI read abundance (log10)” value of the first is higher: 1.88 for the first, 0.16 for the second.

“CCCCACGCATGGACCGGTTTTCCCGGTAATCCGTATTTGGC (site CCCCACGCTGC)” and “CCCCACGCATGGACCGGTTTTCCCGGTAATCCGTATTTGTA (site CCCCACACTTA)” are within 0.2 log units of each other in “recombinant UMI read abundance (log10)” value: 0.767 for the first, 0.643 for the second.

Going from “CCCCACGCATGGACCGGTTTTCCCGGTAATCCGTATTTGTA (site CCCCACCCTTA)” to “CCCCACGCATGGACCGGTTTTCCCGGTAATCCGTATTTGTA (site CCCCACGCTTA)”, the “recombinant UMI read abundance (log10)” value rises from 0.00405 to 0.81.

First: CCCCACGCATGGACCGGTTTTCCCGGTAATCCGTATTTGTA (site CCCCACTCTTA)
Second: CCCCAGCCATGGACCGGTTTTCCCGGTAATCCGTATTTGCC (site CCCAAGCCTGG)
The “recombinant UMI read abundance (log10)” value of the first is higher: 0.923 for the first, 0 for the second.

“CCCCAGCCATGGACCGGTTTTCCCGGTAATCCGTATTTGCC (site CCCCAGCCTGG)” and “CCCCAGCCATGGACCGGTTTTCCCGGTAATCCGTATTTGCC (site CCCGAGCCTGG)” are the same in “recombinant UMI read abundance (log10)” value: 0 for the first, 0 for the second.

“CCCCAGCCATGGACCGGTTTTCCCGGTAATCCGTATTTGCC (site CCCTAGCCTGG)” and “CCCCGTCCATGGACCGGTTTTCCCGGTAATCCGTATTTGAA (site CCCCGTCCTTT)” are within 0.2 log units of each other in “recombinant UMI read abundance (log10)” value: 0 for the first, 0.00894 for the second.

Going from “CCCGAGACATGGACCGGTTTTCCCGGTAATCCGTATTTGTT (site CCCGAGACTAA)” to “CCCGAGCCATGGACCGGTTTTCCCGGTAATCCGTATTTGCC (site CCCAAGCCTGG)”, the “recombinant UMI read abundance (log10)” value falls from 0.475 to 0.

“CCCGAGCCATGGACCGGTTTTCCCGGTAATCCGTATTTGCC (site CCCCAGCCTGG)” and “CCCGAGCCATGGACCGGTTTTCCCGGTAATCCGTATTTGCC (site CCCGAGCCTGG)” are the same in “recombinant UMI read abundance (log10)” value: 0 for the first, 0 for the second.

“CCCGAGCCATGGACCGGTTTTCCCGGTAATCCGTATTTGCC (site CCCTAGCCTGG)” and “CCCGGCCCATGGACCGGTTTTCCCGGTAATCCGTATTTGTT (site CACGGCCCTAA)” are within 0.2 log units of each other in “recombinant UMI read abundance (log10)” value: 0 for the first, 0.00644 for the second.

“CCCGGCCCATGGACCGGTTTTCCCGGTAATCCGTATTTGTT (site CCCGGCCCTAA)” and “CCCGGCCCATGGACCGGTTTTCCCGGTAATCCGTATTTGTT (site CGCGGCCCTAA)” are within 0.2 log units of each other in “recombinant UMI read abundance (log10)” value: 0.1 for the first, 0.00519 for the second.

“CCCGGCCCATGGACCGGTTTTCCCGGTAATCCGTATTTGTT (site CTCGGCCCTAA)” and “CCCGGGCCATGGACCGGTTTTCCCGGTAATCCGTATTTGCA (site CCCGGACCTTG)” are the same in “recombinant UMI read abundance (log10)” value: 0 for the first, 0 for the second.

“CCCGGGCCATGGACCGGTTTTCCCGGTAATCCGTATTTGCA (site CCCGGCCCTTG)” and “CCCGGGCCATGGACCGGTTTTCCCGGTAATCCGTATTTGCA (site CCCGGGCCTTG)” are the same in “recombinant UMI read abundance (log10)” value: 0 for the first, 0 for the second.

Compared with “CCCGGGCCATGGACCGGTTTTCCCGGTAATCCGTATTTGCA (site CCCGGTCCTTG)”, “CCCGGGGCATGGACCGGTTTTCCCGGTAATCCGTATTTGCA (site CCCGGGGCTTG)” is higher in “recombinant UMI read abundance (log10)” value: 0 for the first, 1.23 for the second.

“CCCGGTCCATGGACCGGTTTTCCCGGTAATCCGTATTTGAA (site CCCGGTCCTTA)” and “CCCGGTCCATGGACCGGTTTTCCCGGTAATCCGTATTTGAA (site CCCGGTCCTTC)” are within 0.2 log units of each other in “recombinant UMI read abundance (log10)” value: 0 for the first, 0.00874 for the second.

“CCCGGTCCATGGACCGGTTTTCCCGGTAATCCGTATTTGAA (site CCCGGTCCTTG)” and “CCCGGTCCATGGACCGGTTTTCCCGGTAATCCGTATTTGAA (site CCCGGTCCTTT)” are within 0.2 log units of each other in “recombinant UMI read abundance (log10)” value: 0 for the first, 0.00816 for the second.

“CCCGGTCCATGGACCGGTTTTCCCGGTAATCCGTATTTGCC (site CCCGGTCCTAG)” and “CCCGGTCCATGGACCGGTTTTCCCGGTAATCCGTATTTGCC (site CCCGGTCCTCG)” are within 0.2 log units of each other in “recombinant UMI read abundance (log10)” value: 0 for the first, 0.0293 for the second.

“CCCGGTCCATGGACCGGTTTTCCCGGTAATCCGTATTTGCC (site CCCGGTCCTGG)” and “CCCGGTCCATGGACCGGTTTTCCCGGTAATCCGTATTTGCC (site CCCGGTCCTTG)” are within 0.2 log units of each other in “recombinant UMI read abundance (log10)” value: 0 for the first, 0.00573 for the second.

“CCCGTTCCATGGACCGGTTTTCCCGGTAATCCGTATTTGCA (site CCCGATCCTTG)” and “CCCGTTCCATGGACCGGTTTTCCCGGTAATCCGTATTTGCA (site CCCGCTCCTTG)” are the same in “recombinant UMI read abundance (log10)” value: 0 for the first, 0 for the second.

“CCCGTTCCATGGACCGGTTTTCCCGGTAATCCGTATTTGCA (site CCCGGTCCTTG)” and “CCCGTTCCATGGACCGGTTTTCCCGGTAATCCGTATTTGCA (site CCCGTTCCTTG)” are the same in “recombinant UMI read abundance (log10)” value: 0 for the first, 0 for the second.

“CCCTAACCATGGACCGGTTTTCCCGGTAATCCGTATTTGAA (site CCCTAACCTTT)” and “CCCTAACCATGGACCGGTTTTCCCGGTAATCCGTATTTGCC (site CCCTAACCTGG)” are within 0.2 log units of each other in “recombinant UMI read abundance (log10)” value: 0.0156 for the first, 0 for the second.

“CCCTAACCATGGACCGGTTTTCCCGGTAATCCGTATTTGCC (site CCCTACCCTGG)” and “CCCTAACCATGGACCGGTTTTCCCGGTAATCCGTATTTGCC (site CCCTAGCCTGG)” are the same in “recombinant UMI read abundance (log10)” value: 0 for the first, 0 for the second.

“CCCTAACCATGGACCGGTTTTCCCGGTAATCCGTATTTGCC (site CCCTATCCTGG)” and “CCCTACACATGGACCGGTTTTCCCGGTAATCCGTATTTGCT (site CACTACACTAG)” are the same in “recombinant UMI read abundance (log10)” value: 0 for the first, 0 for the second.

Compared with “CCCTACACATGGACCGGTTTTCCCGGTAATCCGTATTTGCT (site CCCTACACTAG)”, “CCCTACACATGGACCGGTTTTCCCGGTAATCCGTATTTGCT (site CGCTACACTAG)” is lower in “recombinant UMI read abundance (log10)” value: 1.12 for the first, 0.477 for the second.

Going from “CCCTACACATGGACCGGTTTTCCCGGTAATCCGTATTTGCT (site CTCTACACTAG)” to “CCCTAGACATGGACCGGTTTTCCCGGTAATCCGTATTTGCC (site CCCTAGACTGG)”, the “recombinant UMI read abundance (log10)” value rises from 0.347 to 1.04.

Going from “CCCTAGACATGGACCGGTTTTCCCGGTAATCCGTATTTGCC (site CCCTAGCCTGG)” to “CCCTAGACATGGACCGGTTTTCCCGGTAATCCGTATTTGCC (site CCCTAGGCTGG)”, the “recombinant UMI read abundance (log10)” value rises from 0 to 1.18.

Going from “CCCTAGACATGGACCGGTTTTCCCGGTAATCCGTATTTGCC (site CCCTAGTCTGG)” to “CCCTAGACATGGACCGGTTTTCCCGGTAATCCGTATTTGCT (site CCCTAGACTAG)”, the “recombinant UMI read abundance (log10)” value rises from 0 to 0.956.

“CCCTAGCCATGGACCGGTTTTCCCGGTAATCCGTATTTGAC (site CCCTAGCCTGA)” and “CCCTAGCCATGGACCGGTTTTCCCGGTAATCCGTATTTGAC (site CCCTAGCCTGC)” are the same in “recombinant UMI read abundance (log10)” value: 0 for the first, 0 for the second.

“CCCTAGCCATGGACCGGTTTTCCCGGTAATCCGTATTTGAC (site CCCTAGCCTGG)” and “CCCTAGCCATGGACCGGTTTTCCCGGTAATCCGTATTTGAC (site CCCTAGCCTGT)” are the same in “recombinant UMI read abundance (log10)” value: 0 for the first, 0 for the second.

“CCCTAGCCATGGACCGGTTTTCCCGGTAATCCGTATTTGCA (site CCCTAGCCTAG)” and “CCCTAGCCATGGACCGGTTTTCCCGGTAATCCGTATTTGCA (site CCCTAGCCTCG)” are the same in “recombinant UMI read abundance (log10)” value: 0 for the first, 0 for the second.

“CCCTAGCCATGGACCGGTTTTCCCGGTAATCCGTATTTGCA (site CCCTAGCCTGG)” and “CCCTAGCCATGGACCGGTTTTCCCGGTAATCCGTATTTGCA (site CCCTAGCCTTG)” are the same in “recombinant UMI read abundance (log10)” value: 0 for the first, 0 for the second.

“CCCTAGCCATGGACCGGTTTTCCCGGTAATCCGTATTTGCG (site CCCTAGCCTAG)” and “CCCTAGCCATGGACCGGTTTTCCCGGTAATCCGTATTTGCG (site CCCTAGCCTCG)” are within 0.2 log units of each other in “recombinant UMI read abundance (log10)” value: 0 for the first, 0.0131 for the second.

“CCCTAGCCATGGACCGGTTTTCCCGGTAATCCGTATTTGCG (site CCCTAGCCTGG)” and “CCCTAGCCATGGACCGGTTTTCCCGGTAATCCGTATTTGCG (site CCCTAGCCTTG)” are the same in “recombinant UMI read abundance (log10)” value: 0 for the first, 0 for the second.

“CCCTAGCCATGGACCGGTTTTCCCGGTAATCCGTATTTGCT (site CCCTAGCCTAG)” and “CCCTAGCCATGGACCGGTTTTCCCGGTAATCCGTATTTGCT (site CCCTAGCCTCG)” are the same in “recombinant UMI read abundance (log10)” value: 0 for the first, 0 for the second.

“CCCTAGCCATGGACCGGTTTTCCCGGTAATCCGTATTTGCT (site CCCTAGCCTGG)” and “CCCTAGCCATGGACCGGTTTTCCCGGTAATCCGTATTTGCT (site CCCTAGCCTTG)” are the same in “recombinant UMI read abundance (log10)” value: 0 for the first, 0 for the second.

For “CCCTCAACATGGACCGGTTTTCCCGGTAATCCGTATTTGAT (site CCCTCAACTAT)”, the “recombinant UMI read abundance (log10)” value was 0.00694.
